Legend:
Format in all cases: in vivo
[1] = tested on: giant foxtail (Setaria faberi); assay: Test G Pre-Emergence Protocol; conditions: Setaria faberi, pre-emergence, 312 h, evaluated after 13 days; for pest or weed control at 15.625 g/ha: 15.625 g ai/ha; for pest or weed control at 15.625 g/ha / pest or weed control at 250 g/ha: read-out: Foxtail, Giant damage rating (100=total damage to plant; 0=no damage to plant); for pest or weed control at 62.5 g/ha: 62.5 g ai/ha, 100=total damage to plant, 0=no damage to plant, read-out: Foxtail, Giant damage rating; for pest or weed control at 250 g/ha: 250 g ai/ha
How it was run: (§1)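 Glasshouse pre-emergence test: soil-sown seeds, sprayed after 1 d at 15.625, 62.5 or 250 g/ha. Conditions 24/16° C day/night, 14 h light, 65% humidity, watering twice daily. Rating 13 d post-spray (100 = total damage).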

[2] = tested on: barnyardgrass (Echinochloa crus-galli); assay: Test G Pre-Emergence Protocol; conditions: Echinochloa crus-galli, pre-emergence, 312 h, evaluated after 13 days; for pest or weed control at 15.625 g/ha: 15.625 g ai/ha; for pest or weed control at 15.625 g/ha / pest or weed control at 250 g/ha: read-out: Barnyardgrass damage rating (100=total damage to plant; 0=no damage to plant); for pest or weed control at 62.5 g/ha: 62.5 g ai/ha, 100=total damage to plant, 0=no damage to plant, read-out: Barnyardgrass damage rating; for pest or weed control at 250 g/ha: 250 g ai/ha
How it was run: as §1

[3] = tested on: ivy-leaved morning glory (Ipomoea hederacea); assay: Test G Pre-Emergence Protocol; conditions: Ipomoea, pre-emergence, 312 h, evaluated after 13 days; for pest or weed control at 15.625 g/ha: 15.625 g ai/ha; for pest or weed control at 15.625 g/ha / pest or weed control at 250 g/ha: read-out: Morningglory, Ivy-leaved damage rating (100=total damage to plant; 0=no damage to plant); for pest or weed control at 62.5 g/ha: 62.5 g ai/ha, 100=total damage to plant, 0=no damage to plant, read-out: Morningglory, Ivy-leaved damage rating; for pest or weed control at 250 g/ha: 250 g ai/ha
How it was run: as §1

corn (Zea mays) [4] = assay: Test G Pre-Emergence Protocol; conditions: Zea mays, pre-emergence, 312 h, evaluated after 13 days; for plant injury at 15.625 g/ha: 15.625 g ai/ha; for plant injury at 15.625 g/ha / plant injury at 250 g/ha: read-out: Corn damage rating (100=total damage to plant; 0=no damage to plant); for plant injury at 62.5 g/ha: 62.5 g ai/ha, 100=total damage to plant, 0=no damage to plant, read-out: Corn damage rating; for plant injury at 250 g/ha: 250 g ai/ha
How it was run: as §1

[5] = tested on: redroot pigweed (Amaranthus retroflexus); assay: Test G Pre-Emergence Protocol; conditions: Amaranthus retroflexus, pre-emergence, 312 h, evaluated after 13 days; for pest or weed control at 15.625 g/ha: 15.625 g ai/ha; for pest or weed control at 15.625 g/ha / pest or weed control at 250 g/ha: read-out: Pigweed, Redroot damage rating (100=total damage to plant; 0=no damage to plant); for pest or weed control at 62.5 g/ha: 62.5 g ai/ha, 100=total damage to plant, 0=no damage to plant, read-out: Pigweed, Redroot damage rating; for pest or weed control at 250 g/ha: 250 g ai/ha
How it was run: as §1

[6] = tested on: velvetleaf (Abutilon theophrasti); assay: Test G Pre-Emergence Protocol; conditions: Abutilon theophrasti, pre-emergence, 312 h, evaluated after 13 days; for pest or weed control at 15.625 g/ha: 15.625 g ai/ha; for pest or weed control at 15.625 g/ha / pest or weed control at 250 g/ha: read-out: Velvetleaf damage rating (100=total damage to plant; 0=no damage to plant); for pest or weed control at 62.5 g/ha: 62.5 g ai/ha, 100=total damage to plant, 0=no damage to plant, read-out: Velvetleaf damage rating; for pest or weed control at 250 g/ha: 250 g ai/ha
How it was run: as §1

[7] = tested on: giant foxtail (Setaria faberi); assay: Test G Post-Emergence Protocol; conditions: Setaria faberi, post-emergence, 312 h, read-out: Foxtail, Giant damage rating; for pest or weed control at 15.625 g/ha: 15.625 g ai/ha, evaluated after 13 days (100=total damage to plant; 0=no damage to plant); for pest or weed control at 62.5 g/ha: 62.5 g ai/ha; for pest or weed control at 62.5 g/ha / pest or weed control at 250 g/ha: evaluated after 13 days, 100=total damage to plant, 0=no damage to plant; for pest or weed control at 250 g/ha: 250 g ai/ha
How it was run: (§2)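 Damage was rated 13 days after treatment from 0 (none) to 100 (plant killed). Compound was applied as a spray at 15.625, 62.5 or 250 g/ha in 50:50 acetone/water containing 0.5% Tween 20, onto 8-day-old potted plants kept in a glasshouse (24/16 °C, 14 h light, 65% humidity).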

[8] = tested on: barnyardgrass (Echinochloa crus-galli); assay: Test G Post-Emergence Protocol; conditions: Echinochloa crus-galli, post-emergence, 312 h, read-out: Barnyardgrass damage rating; for pest or weed control at 15.625 g/ha: 15.625 g ai/ha, evaluated after 13 days (100=total damage to plant; 0=no damage to plant); for pest or weed control at 62.5 g/ha: 62.5 g ai/ha; for pest or weed control at 62.5 g/ha / pest or weed control at 250 g/ha: evaluated after 13 days, 100=total damage to plant, 0=no damage to plant; for pest or weed control at 250 g/ha: 250 g ai/ha
How it was run: as §2

[9] = tested on: ivy-leaved morning glory (Ipomoea hederacea); assay: Test G Post-Emergence Protocol; conditions: Ipomoea, post-emergence, 312 h, read-out: Morningglory, Ivy-leaved damage rating; for pest or weed control at 15.625 g/ha: 15.625 g ai/ha, evaluated after 13 days (100=total damage to plant; 0=no damage to plant); for pest or weed control at 62.5 g/ha: 62.5 g ai/ha; for pest or weed control at 62.5 g/ha / pest or weed control at 250 g/ha: evaluated after 13 days, 100=total damage to plant, 0=no damage to plant; for pest or weed control at 250 g/ha: 250 g ai/ha
How it was run: as §2

corn (Zea mays) [10] = assay: Test G Post-Emergence Protocol; conditions: Zea mays, post-emergence, 312 h, read-out: Corn damage rating; for plant injury at 15.625 g/ha: 15.625 g ai/ha, evaluated after 13 days (100=total damage to plant; 0=no damage to plant); for plant injury at 62.5 g/ha: 62.5 g ai/ha; for plant injury at 62.5 g/ha / plant injury at 250 g/ha: evaluated after 13 days, 100=total damage to plant, 0=no damage to plant; for plant injury at 250 g/ha: 250 g ai/ha
How it was run: as §2

[11] = tested on: redroot pigweed (Amaranthus retroflexus); assay: Test G Post-Emergence Protocol; conditions: Amaranthus retroflexus, post-emergence, 312 h, read-out: Pigweed, Redroot damage rating; for pest or weed control at 15.625 g/ha: 15.625 g ai/ha, evaluated after 13 days (100=total damage to plant; 0=no damage to plant); for pest or weed control at 62.5 g/ha: 62.5 g ai/ha; for pest or weed control at 62.5 g/ha / pest or weed control at 250 g/ha: evaluated after 13 days, 100=total damage to plant, 0=no damage to plant; for pest or weed control at 250 g/ha: 250 g ai/ha
How it was run: as §2

[12] = tested on: velvetleaf (Abutilon theophrasti); assay: Test G Post-Emergence Protocol; conditions: Abutilon theophrasti, post-emergence, 312 h, read-out: Velvetleaf damage rating; for pest or weed control at 15.625 g/ha: 15.625 g ai/ha, evaluated after 13 days (100=total damage to plant; 0=no damage to plant); for pest or weed control at 62.5 g/ha: 62.5 g ai/ha; for pest or weed control at 62.5 g/ha / pest or weed control at 250 g/ha: evaluated after 13 days, 100=total damage to plant, 0=no damage to plant; for pest or weed control at 250 g/ha: 250 g ai/ha
How it was run: as §2

| Structure (SMILES) | pest or weed control at 15.625 g/ha [1] | pest or weed control at 62.5 g/ha [1] | pest or weed control at 250 g/ha [1] | pest or weed control at 15.625 g/ha [2] | pest or weed control at 62.5 g/ha [2] | pest or weed control at 250 g/ha [2] | pest or weed control at 15.625 g/ha [3] | pest or weed control at 62.5 g/ha [3] | pest or weed control at 250 g/ha [3] | plant injury at 15.625 g/ha (corn (Zea mays) [4]) | plant injury at 62.5 g/ha (corn (Zea mays) [4]) | plant injury at 250 g/ha (corn (Zea mays) [4]) | pest or weed control at 15.625 g/ha [5] | pest or weed control at 62.5 g/ha [5] | pest or weed control at 250 g/ha [5] | pest or weed control at 15.625 g/ha [6] | pest or weed control at 62.5 g/ha [6] | pest or weed control at 250 g/ha [6] | pest or weed control at 15.625 g/ha [7] | pest or weed control at 62.5 g/ha [7] | also measured |
| --- | --- | --- | --- | --- | --- | --- | --- | --- | --- | --- | --- | --- | --- | --- | --- | --- | --- | --- | --- | --- | --- |
| CN1CC(c2cc(F)c(Cl)c(F)c2)C(C(=O)Nc2cccc(F)c2F)C1=O (stereo not drawn) [Compound 1703] | 80% | 80% | 90% | 50% | 80% | 80% | 0% | 0% | 40% | 0% | 60% | 80% | 0% | 0% | 10% | 0% | 0% | 30% | 70% | 70% | pest or weed control at 250 g/ha [7]: 80%; pest or weed control at 15.625 g/ha [8]: 50%; pest or weed control at 62.5 g/ha [8]: 70%; pest or weed control at 250 g/ha [8]: 80%; pest or weed control at 15.625 g/ha [9]: 60%; pest or weed control at 62.5 g/ha [9]: 60%; pest or weed control at 250 g/ha [9]: 60%; plant injury at 15.625 g/ha (corn (Zea mays) [10]): 0%; plant injury at 62.5 g/ha (corn (Zea mays) [10]): 0%; plant injury at 250 g/ha (corn (Zea mays) [10]): 80%; pest or weed control at 15.625 g/ha [11]: 20%; pest or weed control at 62.5 g/ha [11]: 60%; pest or weed control at 250 g/ha [11]: 80%; pest or weed control at 15.625 g/ha [12]: 10%; pest or weed control at 62.5 g/ha [12]: 40%; pest or weed control at 250 g/ha [12]: 70% |
| COc1cc(C2CN(C)C(=O)C2C(=O)Nc2cccc(F)c2F)cc(Cl)c1F (stereo not drawn) [Compound 1705] | 50% | 70% | 80% | 20% | 60% | 70% | 0% | 0% | 10% | 0% | 10% | 70% | 0% | 0% | 30% | 0% | 0% | 20% | 70% | 70% | pest or weed control at 250 g/ha [7]: 80%; pest or weed control at 15.625 g/ha [8]: 20%; pest or weed control at 62.5 g/ha [8]: 30%; pest or weed control at 250 g/ha [8]: 80%; pest or weed control at 15.625 g/ha [9]: 0%; pest or weed control at 62.5 g/ha [9]: 20%; pest or weed control at 250 g/ha [9]: 50%; plant injury at 15.625 g/ha (corn (Zea mays) [10]): 10%; plant injury at 62.5 g/ha (corn (Zea mays) [10]): 0%; plant injury at 250 g/ha (corn (Zea mays) [10]): 70%; pest or weed control at 15.625 g/ha [11]: 0%; pest or weed control at 62.5 g/ha [11]: 0%; pest or weed control at 250 g/ha [11]: 30%; pest or weed control at 15.625 g/ha [12]: 0%; pest or weed control at 62.5 g/ha [12]: 0%; pest or weed control at 250 g/ha [12]: 10% |

From US12077503B2, “Substituted cyclic amides and their use as herbicides” (FMC CORPORATION, priority 2015, dated 2024)
